Reference: patent US20190315823A1, “SMALL CATIONIC ANTI-BIOFILM AND IDR PEPTIDES” (priority 2013, published 2019)
Ends that are not written are not given here.

What was measured:
[1] = system: methicillin resistant Staphylococcus aureus (MRSA) biofilm; details: approximate peptide concentration […] (around 3 μg/ml); compared to untreated samples
Procedure, shortened: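 Peptide was present from inoculation onward, with bacteria seeded at 1/100 from overnight cultures into BM2 biofilm medium or Luria Broth. Crystal violet staining of surface-attached cells (A595) quantified biofilm reduction at 22–46 h. K. pneumoniae was additionally screened in a real-time Bioflux flow device for some peptides.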

[2] = system: human peripheral blood mononuclear cells (MCP-1); experiment: SPOT-synthesized derivative screen: production of chemokine MCP-1; format: cell-based; details: Table 12, No LPS, human PBMC, peptide at ~18-24 μM; for MCP1: background subtracted 139 (HH2 derivatives), 170 (1018 derivatives), 242 (1002 and hybrid peptides) pg/ml
Procedure, shortened: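 MCP-1 was quantified by capture ELISA in cleared culture supernatants of treated human peripheral blood mononuclear cells. Cells came from heparinized volunteer blood via Ficoll gradient and were seeded at 0.75 to 1×10^6 cells/ml (37 °C, 5% CO2).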

[3] = system: LPS-stimulated human peripheral blood mononuclear cells (IL1-β); format: cell-based; details: Table 12, cells stimulated with 10 ng/ml LPS; for IL1β Production: LPS alone 1313 (HH2 derivatives), 1927 (1018 derivatives), 2455 (1002 and hybrid peptides) pg/ml

Row | Substance | % Biofilm inhibition [1] [%] | Fold increase in MCP1 cf. untreated cells [2] | MCP1 [2] [pg/mL] | Fold change in IL1β relative to no peptide LPS stimulated cells [3] | IL1β Production [3] [pg/mL]
1 | 1018-G3: single substituted 1018 peptide (VRGIVAVRIWRR-NH2) [Peptide 1018-G3] | 42 | 1.5 | 83 | 0.57 | 748
2 | HH2-A3: single substituted HH2 peptide (VQARIRVAVIRA-NH2) | 52 | 1.3 | 59 | 1.44 | 1886
3 | 1018-L9: single substituted 1018 peptide (VRLIVAVRLWRR-NH2) [Peptide 1018-L9] | 52 | 1.4 | 66 | 0.13 | 171
4 | 1018-L10: single substituted 1018 peptide (VRLIVAVRILRR-NH2) [Peptide 1018-L10] | 38 | 0.7 | -60 | 0.10 | 127
5 | 1018-L1: single substituted 1018 peptide (LRLIVAVRIWRR-NH2) [Peptide 1018-L1] | 72 | 4.1 | 531 | 0.21 | 282
6 | 1018-A11: single substituted 1018 peptide (VRLIVAVRIWAR-NH2) [Peptide 1018-A11] | 59 | 0.6 | -65 | 0.87 | 1148
7 | 1002-Q8: single substituted 1002 peptide (VQRWLIVQRIRK-NH2) [Peptide 1002-Q8] | 20 | 0.9 | -36.2 | 0.66 | 1608
8 | 1018-Q1: single substituted 1018 peptide (QRLIVAVRIWRR-NH2) [Peptide 1018-Q1] | 46 | 3.1 | 363 | 0.12 | 158
9 | 1002-R10: single substituted 1002 peptide (VQRWLIVWRRRK-NH2) [Peptide 1002-R10] | 15 | 2.5 | 375.3 | 0.05 | 127
10 | HH2-A10: single substituted HH2 peptide (VQLRIRVAVARA-NH2) | 53 | 2.5 | 258 | 1.70 | 2234
11 | HH2-Q3: single substituted HH2 peptide (VQQRIRVAVIRA-NH2) | 28 | 6.8 | 989 | 0.87 | 1141
12 | 1002-W3: single substituted 1002 peptide (VQWWLIVWRIRK-NH2) [Peptide 1002-W3] | 68 | 1.4 | 90.4 | 0.05 | 127
13 | 1002-W1: single substituted 1002 peptide (WQRWLIVWRIRK-NH2) [Peptide 1002-W1] | 76 | 3.6 | 622.0 | 0.05 | 127
14 | 1018-L7: single substituted 1018 peptide (VRLIVALRIWRR-NH2) [Peptide 1018-L7] | 72 | 0.9 | -10 | 0.10 | 132
15 | HH2-L7: single substituted HH2 peptide (VQLRIRLAVIRA-NH2) | 68 | 19 | 3138 | 1.05 | 1378
16 | 1018-G1: single substituted 1018 peptide (GRLIVAVRIWRR-NH2) [Peptide 1018-G1] | 38 | 216 | 36611 | 0.10 | 127
17 | 1002-L2: single substituted 1002 peptide (VLRWLIVWRIRK-NH2) [Peptide 1002-L2] | 72 | 9.1 | 1968.2 | 0.05 | 127
18 | HH2-V4: single substituted HH2 peptide (VQLVIRVAVIRA-NH2) | 60 | 20 | 3216 | 0.67 | 877
19 | HH2-V12: single substituted HH2 peptide (VQLRIRVAVIRV-NH2) | 65 | 33 | 5492 | 0.85 | 1119
20 | 1018-K9: single substituted 1018 peptide (VRLIVAVRKWRR-NH2) [Peptide 1018-K9] | 60 | 1.1 | 15 | 0.23 | 300
21 | HH2-R2: single substituted HH2 peptide (VRLRIRVAVIRA-NH2) | 54 | 4.6 | 604 | 1.10 | 1438
22 | 1018-L5: single substituted 1018 peptide (VRLILAVRIWRR-NH2) [Peptide 1018-L5] | 71 | 3.0 | 335 | 0.12 | 162
23 | 1002-W7: single substituted 1002 peptide (VQRWLIWWRIRK-NH2) [Peptide 1002-W7] | 62 | 1.5 | 128.3 | 0.05 | 127
24 | 1018-L4: single substituted 1018 peptide (VRLLVAVRIWRR-NH2) [Peptide 1018-L4] | 64 | 0.9 | -10 | 0.10 | 127
25 | 1002-W2: single substituted 1002 peptide (VWRWLIVWRIRK-NH2) [Peptide 1002-W2] | 61 | 11.8 | 2611.5 | 0.05 | 127
